From patent publication US8933229B2, “8-azabicyclo[3.2.1]octane-8-carboxamide derivative” (Sumitomo Dainippon Pharma Co., Ltd., priority 2009, dated 2015)

What follows are compounds tested against T1, cortisone reductase of mouse adipose cell (11βHSD1) (Mus musculus, UniProt P50172) (assay: Inhibitory activity assay against cortisone reductase of mouse primary adipocytes). Conditions: differentiated ICR mouse visceral fat primary adipocytes, 100 nM [1,2-3H] cortisone, 37° C.
T1 construct: The medium of adipocytes which were differentiated and induced as mentioned above were replaced; endogenous in cells; host or cells: primary cells from visceral fat tissue of ICR male mice (Japan SLC), differentiated into adipocytes in culture
T1 sequence (P50172 whole entry): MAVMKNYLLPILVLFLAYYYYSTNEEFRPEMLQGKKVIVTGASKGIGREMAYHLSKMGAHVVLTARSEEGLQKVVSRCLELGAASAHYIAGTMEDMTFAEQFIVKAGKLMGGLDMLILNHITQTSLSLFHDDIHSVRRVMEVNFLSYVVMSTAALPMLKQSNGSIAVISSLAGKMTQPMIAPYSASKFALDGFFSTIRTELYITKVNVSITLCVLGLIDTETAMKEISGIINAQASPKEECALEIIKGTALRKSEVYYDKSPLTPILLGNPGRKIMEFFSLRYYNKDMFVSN
Type: cell-based
Procedure: The adipose tissues adhered to the mesenterium and around the testicle of ten ICR male mice (9 to 11 weeks old, Japn SLC Inc.) (hereinafter, referred to as visceral fat tissue) were soaked in about 100 mL of a phospate buffer (0.20 g/L KCl, 0.20 g/L KH2PO4, 8.00 g/L NaCl, 2.16 g/L Na2HPO4.7H2O, 100 unit/ml penicillin (GIBCO), 100 μg/ml streptomycin (GIBCO), 250 ng/ml amphotericin (GIBCO)) and washed at room temperature.
The excised visceral fat tissues was cut finely in about 5×5 mm with scissors in Dulbecco's modified Eagle medium (about 50 ml, containing 4.5 g/L D-glucose and 584 mg/L L-glutamine, GIBCO) to which collagenase (Type II, Sigma), penicillin (GIBCO), streptomycin (GIBCO) and amphotericin (GIBCO) were added in an amount so that the final concentrations thereof are adjusted to 1 mg/ml, 100 unit/ml, 100 μg/ml and 250 ng/ml, respectively. Then, the mixture was shaken at 37° C. for 30 minutes (about 170 rpm), filtered through nylon mesh (80S [the pore size: 250 μm], SANSHIN INDUSTRIAL CO., LTD.), and the filtrate (cell suspension) was collected. This filtrate was centrifuged at 1800 rpm at room temperature for 5 minutes, and then, the liquid layer was removed stilly by decantation to give a precipate. This precipiate was suspended in Dulbecco's modified Eagle medium (30 ml, containing 4.5 g/L D-glucose and 584 mg/L L-glutamine, GIBCO; hereinafter, occasionally referred to as FBS-containing medium), to which fetal bovine serum (hereinafter referred to as FBS, GIBCO), ascorbic acid (Wako Pure Chemical Industries, Ltd.), penicillin (GIBCO), streptomycin (GIBCO) and amphotericin (GIBCO) are added thereto in an amount so that the final concentrations thereof were adjusted to 10%, 200 μM, 100 units/ml, 100 μg/ml and 250 ng/ml, respectively, and then the suspension was filtered through a nylon mesh (420S [pore size: 25 μm], SANSHIN INDUSTRIAL CO., LTD.). The filtrate was collected, and centrifuged at 1800 rpm at room temperature for 5 minutes. The liquid layer was removed stilly by decantation, and the precipitate was suspended again in the FBS-containing medium (30 ml). This suspension was treated by the same procedure (centrifugation, removal of liquid layer, suspension in FBS-containing medium) two times more, and the suspension (90 ml) was prepared. This suspension was put into cell culture flasks (T150, for adhered cell culture, Iwaki Glass) in a each volume of 30 ml, and incubated at 37° C. in the presence of 5% CO2. At 5 to 6 hours after starting incubation, the medium was removed, and the wall of the flask was washed with the above-mentioned phosphate buffer (15 ml). The washing liquid was removed, and the washing procedure was repeated again, and the phosphate buffer was removed. To the flask was added FBS-containing medium (30 ml), and the mixture was incubated at 37° C. under the presence of 5% CO2. On Day 1 or Day 2 after the culture started, the medium was removed, and the wall of the flask was washed with the phosphate buffer (15 ml) once. To the flask was added a trypsin-ethylenediamine tetraacetate (hereinafter, referred to as trypsin-EDTA) solution (0.05% trypsin, 0.53 mM EDTA 4Na, GIBCO) in such a volume that the cells are duly soaked, and the mixture was allowed to stand at 37° C. for 5 minutes. To this mixture was added the FBS-containing medium in about 10-times volume of that of the trypsin-EDTA solution, and then the cell suspension was obtained.
The cells in the cell suspension were counted with a counting chamber, and the cell suspension was diluted with the FBS-containing medium so that the concentration of the cell was adjusted to 1.4×10^5 cells/ml. Thus obtained cell dilution was put into a 48-well plate (for adherent cell culture, Iwaki Glass) in an amount of 300 μl per well, and the plate was incubated at 37° C. in the presence of 5% CO2 for 1 to 2 days. […]
With `O=C(NC1C2CC3CC1CC(O)(C3)C2)N1C2CCC1CC(Oc1cc(C(F)(F)F)ccn1)C2` (centres unmarked) [Example 307] the IC50 was < 1 nM.
For `CC(C)c1ccnc(OC2CC3CCC(C2)N3C(=O)NC2C3CC4CC2CC(O)(C4)C3)c1` (centres unmarked) [Example 309], the IC50 was 4.1 nM.
With `O=C(NC1C2CC3CC1CC(O)(C3)C2)N1C2CCC1CC(Oc1cccc(Cl)n1)C2` (centres unmarked) [Example 311] the IC50 was 8.8 nM.
`CN(c1ccccc1)C1CC2CCC(C1)N2C(=O)NC1C2CC3CC1CC(O)(C3)C2` (stereo not drawn) [Example 316, (3-Endo)-N-[(E)-5-hydroxyadamantan-2-yl]-3-[methyl(phenyl)amino]-8-azabicyclo-[3.2.1]octane-8-carboxamide] gave an IC50 of 18 nM.
In the case of `CCc1cccnc1OC1CC2CCC(C1)N2C(=O)NC1C2CC3CC1CC(O)(C3)C2` (centres unmarked) [Example 324], the IC50 is reported as < 3 nM.
For `O=C(NC1C2CC3CC1CC(O)(C3)C2)N1C2CCC1CC(Oc1ncc(C(F)F)cc1Cl)C2` (centres unmarked) [Example 342], the IC50 was < 3 nM.
`CC(=O)c1cccnc1OC1CC2CCC(C1)N2C(=O)NC1C2CC3CC1CC(O)(C3)C2` (centres unmarked) [Example 353] showed an IC50 of 7.9 nM.
In the case of `COCc1cccc(OC2CC3CCC(C2)N3C(=O)NC2C3CC4CC2CC(O)(C4)C3)c1F` (centres unmarked) [Example 364], the IC50 is reported as 7.7 nM.
With `O=C(NC1C2CC3CC1CC(O)(C3)C2)N1C2CCC1CC(Oc1cccc(COCC(F)(F)F)c1)C2` (centres unmarked) [Example 367] the IC50 was < 3 nM.
`O=C(NC1C2CC3CC1CC(O)(C3)C2)N1C2CCC1CC(Oc1ncccc1F)C2` (centres unmarked) [Example 400] was tested, and the IC50 was < 3 nM.
In the case of `Cc1cccnc1OC1CC2CCC(C1)N2C(=O)NC1C2CC3CC1CC(O)(C3)C2` (centres unmarked) [Example 407], the IC50 is reported as 4.1 nM.
With `Cc1cccc(N2CCC(OC3CC4CCC(C3)N4C(=O)NC3C4CC5CC3CC(O)(C5)C4)CC2)c1` (centres unmarked) [Example 423] the IC50 was < 3 nM.
`O=C(NC1C2CC3CC1CC(O)(C3)C2)N1C2CCC1CC(N1Cc3ccccc3C1)C2` (centres unmarked) [Example 431] showed an IC50 of 27 nM.

What follows are compounds tested against T2, cortisone reductase of human adipose cell (11βHSD1) (Homo sapiens, UniProt P28845) (assay: Inhibitory activity assay against cortisone reductase activity of cultured human adipocytes). Conditions: differentiated normal human preadipocytes (HPrAD-vis), 100 nM [1,2-3H] cortisone, 37° C.
T2 construct: host or cells: normal human visceral preadipocytes (HPrAD-vis) differentiated into adipocytes
T2 sequence (P28845 whole entry): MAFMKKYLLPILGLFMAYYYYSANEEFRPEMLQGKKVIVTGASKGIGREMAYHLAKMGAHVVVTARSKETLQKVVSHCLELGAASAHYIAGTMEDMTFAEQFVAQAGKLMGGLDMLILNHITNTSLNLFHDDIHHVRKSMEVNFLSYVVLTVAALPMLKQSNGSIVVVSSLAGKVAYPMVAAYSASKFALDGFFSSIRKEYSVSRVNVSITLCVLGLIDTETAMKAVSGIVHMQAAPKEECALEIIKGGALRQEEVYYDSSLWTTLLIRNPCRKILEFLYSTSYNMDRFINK
Type: cell-based
Procedure: Normal human preadipocytes (HPrAD-vis, manufactured by Cambrex corporation) were inoculated onto a 48-well cell culture plate, and the differentiation induction was carried out according to Protocol attached to the kit. The medium for the cells on the 9-11 days of the differentiation was changed to D-MEM medium (0.2 ml; manufactured by GIBCO) containing 100 nM [1,2-^3H] cortisone (1 μCi/well, manufactured by Muromachi Yakuhin), 0.5% DMSO, a test compound (for test compound treated group, or DMSO only for the no-test compound treated group). The plate was incubated at 37° C. for 3 hours, and then the whole medium was collected. As a background group, the medium without cell was used. The medium was mixed with ethyl acetate (0.1 ml) in an Eppendorf tube. This mixture was voltexed, and then further centrifuged at 5,000 rpm for one minute at room temperature to separate the ethyl acetate layer (the upper layer). The ethyl acetate layer (10 μl) was spotted on an aluminium plate for thin layer chromatography (silica gel 60 angstrom, Merck & Co., Inc., hereinafter referred to as TLC plate). The developing solvent (chloroform/methanol (90:10, v/v)) was put into a sealed vessel, and the TLC plate was developed, and then dried at room temperature. An imaging plate (TR-2040, Fujifilm) was exposed onto the dried TLC plate for 16 hours or more. After the exposure was completed, the imaging plate was analyzed by Bioimage Analyzer (BAS2500, Fujifilm) and the [^3H] radioactivity on the part corresponding to the position of cortisol developed on the TLC plate. The inhibitory activity of a test compound against cortisone reductase was calculated according to the following equation. (inhibitory activity (%))=100×((group without test compound)−(group with test compound))/((group without test compound)−(background group))
The IC50 value was calculated by linear regression of logarithmic value of the concentration of test compound and the inhibitory activity value, using the data at 2 points showing around 50% of the inhibitory activity. […] The IC50 value of the following compounds of the present invention against cortisone reductase of human adipose cell was determined.
Compound `Cc1cnc(C)c(OC2CC3CCC(C2)N3C(=O)NC2C3CC4CC2CC(O)(C4)C3)n1` (centres unmarked) [Example 306] has an IC50 of 6.3 nM.
Compound `O=C(N[C@H]1C2CC3CC1C[C@](O)(C3)C2)N1[C@@H]2CC[C@H]1CC(COc1ccccc1)C2` (stereo partly drawn) [Example 314, (1R,5S)-N-[(E)-5-Hydroxyadamantan-2-yl]-3-(phenoxymethyl)-8-azabicyclo[3.2.1]octane-8-carboxyamide] has an IC50 of 19 nM.
With `O=C(NC1C2CC3CC1CC(O)(C3)C2)N1C2CCC1CC(Oc1ncccc1C1CC1)C2` (centres unmarked) [Example 326] the IC50 was < 3 nM.
Work on `O=C(NC1C2CC3CC1CC(O)(C3)C2)N1C2CCC1CC(Oc1ncccc1C(F)F)C2` (centres unmarked) [Example 336] yielded an IC50 of 8.4 nM.
For `O=C(NC1C2CC3CC1CC(O)(C3)C2)N1C2CCC1CC(Oc1cc(OC(F)F)ccn1)C2` (centres unmarked) [Example 339], the IC50 was < 3 nM.
`O=C(NC1C2CC3CC1CC(O)(C3)C2)N1C2CCC1CC(Oc1cc(OCC(F)(F)F)ccn1)C2` (centres unmarked) [Example 373] was tested, and the IC50 was 17 nM.
`O=C(NC1C2CC3CC1CC(O)(C3)C2)N1C2CCC1CC(Oc1ccc3c(c1)OC(F)(F)O3)C2` (centres unmarked) [Example 378] gave an IC50 of 14 nM.
For `O=C(NC1C2CC3CC1CC(O)(C3)C2)N1C2CCC1CC(Oc1cc(F)c(F)c(F)c1)C2` (centres unmarked) [Example 383], the IC50 was < 3 nM.
In the case of `O=C1CCc2ccc(OC3CC4CCC(C3)N4C(=O)NC3C4CC5CC3CC(O)(C5)C4)cc21` (centres unmarked) [Example 390], the IC50 is reported as 11 nM.
For `Cc1cc(OC2CC3CCC(C2)N3C(=O)NC2C3CC4CC2CC(O)(C4)C3)ncc1F` (centres unmarked) [Example 404], the IC50 was < 3 nM.
For `O=C(NC1C2CC3CC1CC(O)(C3)C2)N1C2CCC1CC(Oc1ccc(F)cn1)C2` (centres unmarked) [Example 409], the IC50 was < 3 nM.
For `O=C(NC1C2CC3CC1CC(O)(C3)C2)N1C2CCC1CC(Oc1ccc(F)cn1)C2` (centres unmarked) [Example 413], the IC50 was < 3 nM.
Compound `O=C(NC1C2CC3CC1CC(O)(C3)C2)N1C2CCC1CC(OC1CCN(c3ccc(F)cn3)CC1)C2` (centres unmarked) [Example 427] has an IC50 of 15 nM.
With `O=C(N[C@H]1C2CC3CC1C[C@](O)(C3)C2)N1[C@@H]2CC[C@H]1C[C@H](Oc1ccccc1)C2` [compound 2] the IC50 was < 1 nM.
`COc1cccc(OC2CC3CCC(C2)N3C(=O)NC2C3CC4CC2CC(O)(C4)C3)c1Cl` (centres unmarked) [compound 192] was tested, and the IC50 was < 3 nM.
For `Cc1ccnc(C2CC3CCC(C2)N3C(=O)NC2C3CC4CC2CC(O)(C4)C3)c1` (centres unmarked) [compound 241], the IC50 was < 3 nM.
